For experiment [1], the target named is T1, PxOR1 coexpressed with BmOR2 (Plutella xylostella, UniProt B5MEK0).
T1 construct: coexpressed in Xenopus oocytes; mixed-species heteromeric OR complex, PxOR1 of Plutella xylostella with BmOR2 of Bombyx mori; with Odorant receptor coreceptor (Bombyx mori)
T1 sequence (B5MEK0 1-422): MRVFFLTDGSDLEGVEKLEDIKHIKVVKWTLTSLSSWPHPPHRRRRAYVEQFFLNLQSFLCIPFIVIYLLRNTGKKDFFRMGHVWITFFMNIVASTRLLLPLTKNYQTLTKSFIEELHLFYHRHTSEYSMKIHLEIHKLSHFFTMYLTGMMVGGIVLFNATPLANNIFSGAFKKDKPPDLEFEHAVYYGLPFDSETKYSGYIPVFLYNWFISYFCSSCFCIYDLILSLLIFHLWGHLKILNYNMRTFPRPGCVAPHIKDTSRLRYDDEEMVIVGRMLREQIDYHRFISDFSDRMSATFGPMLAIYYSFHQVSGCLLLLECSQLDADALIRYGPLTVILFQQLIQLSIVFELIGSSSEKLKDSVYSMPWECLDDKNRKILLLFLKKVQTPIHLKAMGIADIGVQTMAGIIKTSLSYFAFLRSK
The experiment can be described thus: electrophysiology, agonist-induced current in Xenopus oocytes. Format: cell-based. As to conditions: PxOR1 with Bombyx mori co-receptor BmOR2, applied sequentially to same oocyte, n = 10, read-out: 50% effective concentration. An excerpt: electrophysiology, agonist-induced current in Xenopus oocytes on PxOR1 coexpressed with BmOR2 | PxOR1 with PxOR83 and PxOR1 with BmOR2, respectively

In experiment [2] the target is T2, PxOR1 coexpressed with PxOR83 (Plutella xylostella, UniProt B5MEK0).
T2 construct: coexpressed in Xenopus oocytes; heteromeric OR complex; with Odorant receptor coreceptor
T2 sequence (B5MEK0 1-422): T1 sequence (B5MEK0 1-422)
T2 sequence (D0EZE1 1-471 partner): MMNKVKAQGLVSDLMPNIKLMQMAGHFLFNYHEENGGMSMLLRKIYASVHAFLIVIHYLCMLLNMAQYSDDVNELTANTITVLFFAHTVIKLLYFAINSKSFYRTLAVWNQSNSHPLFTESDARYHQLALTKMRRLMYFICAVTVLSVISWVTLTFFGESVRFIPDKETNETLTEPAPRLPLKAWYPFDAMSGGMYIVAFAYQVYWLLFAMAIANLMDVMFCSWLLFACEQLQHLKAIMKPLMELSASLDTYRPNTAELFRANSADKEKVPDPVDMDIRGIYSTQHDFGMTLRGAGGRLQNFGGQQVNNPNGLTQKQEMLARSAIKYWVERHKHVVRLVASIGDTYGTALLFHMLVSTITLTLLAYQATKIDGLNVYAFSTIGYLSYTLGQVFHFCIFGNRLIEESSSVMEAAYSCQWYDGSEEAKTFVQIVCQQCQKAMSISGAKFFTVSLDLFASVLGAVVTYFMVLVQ
The experiment is described as above. Format: cell-based. As to conditions: read-out: 50% effective concentration.

Results on one compound are retold here after publication PMC3128102, “A Single Sex Pheromone Receptor Determines Chemical Response Specificity of Sexual Behavior in the Silkmoth Bombyx mori” (PLoS Genetics, 2011).

`CCCC/C=C\CCCCCCCCCC=O` [Z11-16:Ald, (Z)-11-hexadecenal]: the EC50 is 1.2 µM in experiment [1] and 0.42 µM in experiment [2].
